Results reported in the supplement of paper PMC10307832.

Key:
Assay in all cases: relative viability (nuclei count vs DMSO), 5 days (fraction); higher = more cells survive
[1] = tested on: 201T
Summary of the method: (§1)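 Five library-drug doses in √10 steps were combined with a fixed anchor-drug dose, or a single drug was given alone, by pin tool to lung cancer cell lines in 1536-well plates the day after seeding. Nuclei were stained and counted after 5 days. Relative viability is the nuclei count in treated wells over that in vehicle wells, taken as the median of duplicate plates.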

[2] = tested on: ABC-1
Summary of the method: as §1

[3] = tested on: BEN
Summary of the method: as §1

[4] = tested on: HCC-366
Summary of the method: as §1

[5] = tested on: HCC-44
Summary of the method: as §1

[6] = tested on: HCC-78
Summary of the method: as §1

[7] = tested on: LK-2
Summary of the method: as §1

[8] = tested on: LOU-NH91
Summary of the method: as §1

[9] = tested on: NCI-H1355
Summary of the method: as §1

[10] = tested on: NCI-H1650
Summary of the method: as §1

[11] = tested on: NCI-H1666
Summary of the method: as §1

[12] = tested on: NCI-H1734
Summary of the method: as §1

[13] = tested on: NCI-H1755
Summary of the method: as §1

[14] = tested on: NCI-H2009
Summary of the method: as §1

[15] = tested on: NCI-H2228
Summary of the method: as §1

[16] = tested on: NCI-H2347
Summary of the method: as §1

[17] = tested on: NCI-H2405
Summary of the method: as §1

[18] = tested on: NCI-H358
Summary of the method: as §1

[19] = tested on: NCI-H520
Summary of the method: as §1

[20] = tested on: NCI-H727
Summary of the method: as §1

[21] = tested on: NCI-H838
Summary of the method: as §1

[22] = tested on: SW 1573
Summary of the method: as §1

[23] = tested on: UMC-11
Summary of the method: as §1

SMILES: Cc1cnc(-c2cnc(NCCNc3ccc(C#N)cn3)nc2-c2ccc(Cl)cc2Cl)[nH]1 + CS(=O)(=O)CCNCc1ccc(-c2ccc3ncnc(Nc4ccc(OCc5cccc(F)c5)c(Cl)c4)c3c2)o1 [Lapatinib] (partner 2 µM)
- relative viability ([1]; first compound 0.08 µM): 1.05
- relative viability ([1]; first compound 0.253 µM): 0.551
- relative viability ([1]; first compound 0.8 µM): 1.01
- relative viability ([1]; first compound 2.53 µM): 0.988
- relative viability ([2]; first compound 0.08 µM): 1.22
- relative viability ([2]; first compound 0.253 µM): 0.969
- relative viability ([2]; first compound 0.8 µM): 1.09
- relative viability ([2]; first compound 2.53 µM): 1.11
- relative viability ([3]; first compound 0.08 µM): 0.615
- relative viability ([3]; first compound 0.253 µM): 0.686
- relative viability ([3]; first compound 0.8 µM): 0.705
- relative viability ([3]; first compound 2.53 µM): 0.621
- relative viability ([4]; first compound 0.08 µM): 0.989
- relative viability ([4]; first compound 0.253 µM): 0.951
- relative viability ([4]; first compound 0.8 µM): 1.08
- relative viability ([4]; first compound 2.53 µM): 0.935
- relative viability ([5]; first compound 0.08 µM): 0.99
- relative viability ([5]; first compound 0.253 µM): 0.858
- relative viability ([5]; first compound 0.8 µM): 0.989
- relative viability ([5]; first compound 2.53 µM): 1.06
- relative viability ([6]; first compound 0.08 µM): 0.449
- relative viability ([6]; first compound 0.253 µM): 0.528
- relative viability ([6]; first compound 0.8 µM): 1.12
- relative viability ([6]; first compound 2.53 µM): 0.546
- relative viability ([7]; first compound 0.08 µM): 1.1
- relative viability ([7]; first compound 0.253 µM): 0.885
- relative viability ([7]; first compound 0.8 µM): 0.928
- relative viability ([7]; first compound 2.53 µM): 0.897
- relative viability ([8]; first compound 0.08 µM): 0.811
- relative viability ([8]; first compound 0.253 µM): 0.738
- relative viability ([8]; first compound 0.8 µM): 0.739
- relative viability ([8]; first compound 2.53 µM): 0.866
- relative viability ([9]; first compound 0.08 µM): 1.06
- relative viability ([9]; first compound 0.253 µM): 0.8
- relative viability ([9]; first compound 0.8 µM): 0.95
- relative viability ([9]; first compound 2.53 µM): 0.909
- relative viability ([10]; first compound 0.08 µM): 0.842
- relative viability ([10]; first compound 0.253 µM): 0.668
- relative viability ([10]; first compound 0.8 µM): 0.387
- relative viability ([10]; first compound 2.53 µM): 0.555
- relative viability ([11]; first compound 0.08 µM): 0.768
- relative viability ([11]; first compound 0.253 µM): 0.554
- relative viability ([11]; first compound 0.8 µM): 0.595
- relative viability ([11]; first compound 2.53 µM): 0.62
- relative viability ([12]; first compound 0.08 µM): 1.13
- relative viability ([12]; first compound 0.253 µM): 0.901
- relative viability ([12]; first compound 0.8 µM): 0.882
- relative viability ([12]; first compound 2.53 µM): 1.05
- relative viability ([13]; first compound 0.08 µM): 1.04
- relative viability ([13]; first compound 0.253 µM): 0.785
- relative viability ([13]; first compound 0.8 µM): 1.06
- relative viability ([13]; first compound 2.53 µM): 1.07
- relative viability ([14]; first compound 0.08 µM): 0.991
- relative viability ([14]; first compound 0.253 µM): 0.522
- relative viability ([14]; first compound 0.8 µM): 0.866
- relative viability ([14]; first compound 2.53 µM): 0.905
- relative viability ([15]; first compound 0.08 µM): 1.23
- relative viability ([15]; first compound 0.253 µM): 0.904
- relative viability ([15]; first compound 0.8 µM): 0.911
- relative viability ([15]; first compound 2.53 µM): 0.781
- relative viability ([16]; first compound 0.08 µM): 0.862
- relative viability ([16]; first compound 0.253 µM): 0.649
- relative viability ([16]; first compound 0.8 µM): 1.06
- relative viability ([16]; first compound 2.53 µM): 1.02
- relative viability ([17]; first compound 0.08 µM): 1.11
- relative viability ([17]; first compound 0.253 µM): 1.01
- relative viability ([17]; first compound 0.8 µM): 0.741
- relative viability ([17]; first compound 2.53 µM): 0.523
- relative viability ([18]; first compound 0.08 µM): 0.43
- relative viability ([18]; first compound 0.253 µM): 0.49
- relative viability ([18]; first compound 0.8 µM): 0.412
- relative viability ([18]; first compound 2.53 µM): 0.401
- relative viability ([19]; first compound 0.08 µM): 0.962
- relative viability ([19]; first compound 0.253 µM): 0.823
- relative viability ([19]; first compound 0.8 µM): 0.93
- relative viability ([19]; first compound 2.53 µM): 0.891
- relative viability ([20]; first compound 0.08 µM): 0.822
- relative viability ([20]; first compound 0.253 µM): 0.882
- relative viability ([20]; first compound 0.8 µM): 0.765
- relative viability ([20]; first compound 2.53 µM): 0.782
- relative viability ([21]; first compound 0.08 µM): 1.12
- relative viability ([21]; first compound 0.253 µM): 0.858
- relative viability ([21]; first compound 0.8 µM): 1.11
- relative viability ([21]; first compound 2.53 µM): 1.27
- relative viability ([22]; first compound 0.08 µM): 1.02
- relative viability ([22]; first compound 0.253 µM): 1.04
- relative viability ([22]; first compound 0.8 µM): 1.1
- relative viability ([22]; first compound 2.53 µM): 1.02
- relative viability ([23]; first compound 0.08 µM): 1.22
- relative viability ([23]; first compound 0.253 µM): 0.7
- relative viability ([23]; first compound 0.8 µM): 0.697
- relative viability ([23]; first compound 2.53 µM): 1.09
